Values quoted from earlier work, collected in patent US20110158922A1, “Skin Care Compositions and Method of Use Thereof” (priority 2008, published 2011).
No end group written: not given here. *: point of attachment. Palmitoyl = CCCCCCCCCCCCCCCC(=O)*

Legend:
[1] = tested on: collagen glycation; details: in vitro
[2] = tested on: skin cell energy production; details: topical application
[3] = tested on: synthesis of GAGs; details: in-vitro study
[4] = tested on: T-T dimmers in DNA, DNA repair, cell viability following UV exposure; details: in vitro

COc1ccc([C@@H]2CC(=O)c3c(O)cc(O[C@@H]4O[C@H](CO[C@@H]5O[C@@H](C)[C@H](O)[C@@H](O)[C@H]5O)[C@@H](O)[C@H](O)[C@H]4O)cc3O2)cc1O [Hesperidin flavonoids, hesperidin]
collagen glycation [1]: inhibit collagen glycation in vitro

CN(CC(=O)O)C(=N)N [creatine]
skin cell energy production [2]: substantial improvement in skin cell energy production

Palmitoyl-Lysysl-Threonyl-Threonyl-Lysyl-Serine (Palmitoyl-KTTKS) [Palmitoyl pentapeptide-4, peptide derived from a collagen precursor]
synthesis of GAGs [3]: increase synthesis of GAGs

ethylbisiminomethylguaiacol manganese chloride
DNA repair [4]: stimulates DNA repair
cell viability following UV exposure [4]: increasing cell viability following UV exposure
formation of T-T dimmers in DNA ([4]; UV exposure): reduces the formation of T-T dimmers in DNA
